In patent publication US9018212B2, “Pyridazine carboxamides as CCR2 receptor antagonists” (Boehringer Ingelheim International GmbH, priority 2010, dated 2015) one finds Ki data, which are given here for 23 compounds.

The test has as its target T1, CCR2 (Homo sapiens, UniProt P41597).
T1 construct: Membranes were prepared from THP-1 cells; endogenous in cells; host or cells: THP-1 (human acute monocytic leukaemia cells), membrane preparation
T1 sequence (P41597 1-360 isoform P41597-2): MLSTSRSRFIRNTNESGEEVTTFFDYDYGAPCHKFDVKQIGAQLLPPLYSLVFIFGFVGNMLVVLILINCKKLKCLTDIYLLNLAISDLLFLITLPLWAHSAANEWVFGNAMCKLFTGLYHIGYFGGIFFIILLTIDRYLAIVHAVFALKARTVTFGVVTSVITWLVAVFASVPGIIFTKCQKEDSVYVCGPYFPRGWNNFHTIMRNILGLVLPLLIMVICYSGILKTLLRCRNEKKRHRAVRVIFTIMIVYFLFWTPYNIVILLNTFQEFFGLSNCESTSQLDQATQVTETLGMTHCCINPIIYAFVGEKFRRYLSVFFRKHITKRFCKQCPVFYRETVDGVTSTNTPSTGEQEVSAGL
The experiment in a line: CCR2 receptor membrane binding assay ([125I]MCP-1, THP-1 membranes, SPA beads). The settings on record: THP-1 cell membranes; [125I]MCP-1 displacement; bound radioactivity after 8 h; read-out: hKi. On the procedure:
The above exemplary substances have been tested for binding to CCR2 using a binding assay as outlined herein below:
THP-1 cells (human acute monocytic leukaemia cells) were cultured under standardized conditions at 37° C. and 5% CO2 in a humidified incubator. THP-1 cells were cultivated in RPMI 1640 medium (Gibco 21875) containing 1% MEM-NEAA (Gibso 11140) 2 mM L-glutamine, 1.5 g/L sodium bicarbonate, 4.5 g/L glucose, 10 mM HEPES and 1.0 mM sodium pyruvate, 90%; 10% fetal calf serum (FCS Gibco 10500-064).
Membranes were prepared from THP-1 cells. THP-1 cells were centrifuged at 300×g at 4° C. for 10 min. The cell pellet was resuspended in Phosphate Buffer Saline (PBS, including 10 μM Pefabloc and a protease inhibitor mix ‘complete’, Boehringer Mannheim (1 tablet/50 ml)), to a concentration of […]. The membrane preparation was performed by disrupting the cells by nitrogen […] (at 50 bar, for 1 h) in a “Nitrogen Bombe” (Parr Instrument). Cell debris was removed by centrifugation (800×g at 4° C., 1 min). The supernatant was centrifuged at 80000×g, 4° C. for 30 min to sediment the cell membranes. Usually 50 mg of protein (Bradford assay) were yielded from 1×10E9 cells. The membranes were resuspended in 25 mM HEPES, 25 mM MgCl2, 1 mM CaCl2, 10% Glycerine for storage in aliquots at −80° C. in 25 mM HEPES, 25 mM MgCl2, 1 mM CaCl2, 10% Glycerine and stored at −80° C.
Perkin Elmer NEX 332 Jod 125 MCP-1, Stock: 2200 Ci/mmol solved in 2000 μl assay buffer, stored at −20° C. THP-1 membrane were adjusted with 25 mM HEPES, pH 7.2; 5 mM MgCl2; 0.5 mM CaCl2; 0.2% BSA assay buffer to a concentration of 2.5 μg/15 μl. Amersham Biosciences PVT-WGA Beads (RPNQ0001) were adjusted with assay buffer to a concentration of 0.24 mg/30 μl. For preparation of the membrane-bead-suspension membranes and beads were incubated for 30 min at RT under rotation (60 rpm) with a ratio of 1:2. Test compounds dissolved in 100% DMSO to a concentration of 10 mM and are further diluted with 100% DMSO to 1 mM. All additional compound dilutions were obtained with assay buffer, final 1% DMSO. Compounds, membrane-bead-suspension and [125I]MCP-1 (ca. 25000 cpm/10 μl) were incubated. Bound radioactivity was determined by scintillation counter after 8 h. Determination of affinity of test compounds (dissociation constant hKi) is calculated by iterative fitting of experimental data using the “easy sys” program, which is based on law of mass action (Schittkowski K. (1994), Numerische Mathematik, Vol. 68, 129-142).
For the compound `COc1nnc(C(=O)N2CCC(N3CCC(N(C)S(C)(=O)=O)CC3)CC2)c(C)c1NCc1ccc(C(C)(C)C)cc1` [Example 1], the Ki is 60 nM. As to `COc1nnc(C(=O)N2CCC(NC3CCOCC3OC)CC2)c(C)c1NCc1ccc(C(C)(C)C)cc1` (centres unmarked) [Example 2], the Ki turned out to be 40 nM. On to `COc1nnc(C(=O)N2CCC(N[C@H]3CCOC[C@H]3OC)CC2)c(C)c1NC[C@H]1CCC[C@@H](c2ccccc2)C1` [Example 3], for which the Ki is 1 nM. On to `COc1nnc(C(=O)N2CCC(N[C@H]3CCOC[C@H]3OC)CC2)c(C)c1N1CCc2ccc(C(F)(F)F)cc2C1` [Example 4], for which the Ki worked out at 10 nM.

As to `COc1nnc(C(=O)N2CCC(N[C@H]3CCOC[C@H]3OC)CC2)c(C)c1NC[C@H]1CCC[C@@H](c2ccc(OC(F)(F)F)cc2)O1` [Example 5], the Ki was 3 nM.

Turning to `COc1nnc(C(=O)N2CCC(N[C@@H]3CCOC[C@@H]3OC)CC2)c(C)c1NC[C@H]1CCC[C@@H](c2ccc(C)cc2)O1` [Example 6], the Ki came out at 4 nM.

In the case of `COc1nnc(C(=O)N2CCC(N[C@H]3CCOC[C@H]3OC)CC2)c(C)c1NC[C@H]1CCC[C@@H](c2ccc(C(F)(F)F)cc2)O1` [Example 7], the Ki was 1 nM. `COc1nnc(C(=O)N2CCC(N[C@@H]3CCOC[C@@H]3OC)CC2)c(C)c1NC[C@H]1CCC[C@@H](c2ccc(C(F)(F)F)cc2)O1` [Example 8]: the Ki came out at 2 nM. Regarding `COC1COCCC1NC1CCN(C(=O)c2nncc(NCc3ccc(C(C)(C)C)cc3)c2C)CC1` (centres unmarked) [Example 9], the Ki was determined as 27 nM. Regarding `CO[C@@H]1COCC[C@@H]1NC1CCN(C(=O)c2nncc(NC[C@H]3CCC[C@@H](c4ccccc4)C3)c2C)CC1` [Example 10], the Ki was found to be 3 nM. Consider `CO[C@@H]1COCC[C@@H]1NC1CCN(C(=O)c2nncc(N3CCc4ccc(C(F)(F)F)cc4C3)c2C)CC1` [Example 11], for which the Ki was found to be 16 nM.

Consider `CO[C@@H]1COCC[C@@H]1NC1CCN(C(=O)c2nncc(NC[C@H]3CCC[C@@H](c4ccc(OC(F)(F)F)cc4)O3)c2C)CC1` [Example 12], for which the Ki worked out at 0.7 nM. As for `Cc1ccc([C@@H]2CCC[C@H](CNc3cnnc(C(=O)N4CCC(NC5CCOCC5F)CC4)c3C)O2)cc1` (some centres unmarked) [Example 13], the Ki turned out to be 35 nM. As for `Cc1c(NC[C@H]2CCC[C@@H](c3ccc(OC(F)(F)F)cc3)O2)cnnc1C(=O)N1CCC(NC2CCOCC2F)CC1` (some centres unmarked) [Example 14], the Ki is 5 nM. With `CO[C@H]1COCC[C@H]1NC1CCN(C(=O)c2nncc(NC[C@H]3CCC[C@@H](c4ccc(C(F)(F)F)cc4)O3)c2C)CC1` [Example 15], the Ki turned out to be 6 nM. Turning to `CO[C@@H]1COCC[C@@H]1NC1CCN(C(=O)c2nncc(NC[C@H]3CCC[C@@H](c4ccc(C(F)(F)F)cc4)O3)c2C)CC1` [Example 16], the Ki was 3 nM.

Regarding `CO[C@H]1COCC[C@H]1NC1CCN(C(=O)c2nncc(N3CCc4ccc(C(F)(F)F)cc4C3)c2C)CC1` [Example 17], the Ki amounted to 73 nM. `Cc1c(NC[C@H]2CCC[C@@H](c3ccccc3)C2)cnnc1C(=O)N1CCC(NC2CCOCC2F)CC1` (some centres unmarked) [Example 18]: the Ki came out at 7 nM. Consider `Cc1c(NC[C@H]2CCC[C@@H](c3ccc(C(F)(F)F)cc3)O2)cnnc1C(=O)N1CCC(NC2CCOCC2F)CC1` (some centres unmarked) [Example 19], for which the Ki was 9 nM. As for `Cc1c(N2CCc3ccc(C(F)(F)F)cc3C2)cnnc1C(=O)N1CCC(NC2CCOCC2F)CC1` (centres unmarked) [Example 20], the Ki came out at 54 nM. As for `Cc1c(Nc2ccc(Cl)c(Cl)c2)cnnc1C(=O)N1CCC(NC2CCOCC2F)CC1` (centres unmarked) [Example 21], the figure is 41 nM; as for `CO[C@@H]1COCC[C@@H]1NC1CCN(C(=O)c2nncc(Nc3ccc(Cl)c(Cl)c3)c2C)CC1` [Example 22], 4 nM.

For the compound `COC1COCCC1NC1CCN(C(=O)c2nnc(C)c(NCc3ccc(C(C)(C)C)cc3)c2C)CC1` (centres unmarked) [Example 23], the Ki stood at 128 nM.
